Experiments:
[1] = test system: Staphylococcus aureus (306 MR); assay: MIC in broth, Gram+ strains; type: cell-based; conditions: S. aureus (306 MR), Mueller-Hinton broth, 37° C., 18 hours, read-out: Minimal Inhibitory Concentration (MIC)
Procedure, shortened: (§1)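 MIC read after 18 hours at 37° C following standard microdilution of compounds in Mueller-Hinton broth. Bacteria grown overnight, matched to 0.5 McFarland turbidity and brought to a final 5.0×10^4 colony-forming units/ml. Mean MIC taken over susceptible strains, alongside count of resistant strains.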

[2] = test system: Staphylococcus aureus (303); assay: MIC in broth, Gram+ strains; type: cell-based; conditions: S. aureus (303), Mueller-Hinton broth, 37° C., 18 hours, read-out: Minimal Inhibitory Concentration (MIC)
Procedure, shortened: as §1

[3] = test system: Staphylococcus aureus (ATCC 14154); assay: MIC in broth, Gram+ strains; type: cell-based; conditions: ATCC14154, S. aureus (ATCC 14154), Mueller-Hinton broth, 37° C., 18 hours, read-out: Minimal Inhibitory Concentration (MIC)
Procedure, shortened: as §1

[4] = test system: Streptococcus faecalis (519); assay: MIC in broth, Gram+ strains; type: cell-based; conditions: Enterococcus faecalis; S. faecalis (519), Mueller-Hinton broth, 37° C., 18 hours; read-out: Minimal Inhibitory Concentration (MIC)
Procedure, shortened: as §1

[5] = test system: Bacillus pumilus (CN 607); assay: MIC in broth, Gram+ strains; type: cell-based; conditions: B. pumilus (CN 607), Mueller-Hinton broth, 37° C., 18 hours, read-out: Minimal Inhibitory Concentration (MIC)
Procedure, shortened: as §1

[6] = test system: Staphylococcus aureus (LC1); assay: MIC in broth, Gram+ strains; type: cell-based; conditions: S. aureus (LC1), Mueller-Hinton broth, 37° C., 18 hours, read-out: Minimal Inhibitory Concentration (MIC)
Procedure, shortened: as §1

[7] = test system: Streptococcus faecalis (509); assay: MIC in broth, Gram+ strains; type: cell-based; conditions: Enterococcus faecalis; S. faecalis (509), Mueller-Hinton broth, 37° C., 18 hours; read-out: Minimal Inhibitory Concentration (MIC)
Procedure, shortened: as §1

[8] = test system: Bacillus subtilis (ATCC 6051); assay: MIC in broth, Gram+ strains; type: cell-based; conditions: ATCC6051, B. subtilis (ATCC 6051), Mueller-Hinton broth, 37° C., 18 hours, read-out: Minimal Inhibitory Concentration (MIC)
Procedure, shortened: as §1

[9] = test system: Streptococcus faecalis (516); assay: MIC in broth, Gram+ strains; type: cell-based; conditions: Enterococcus faecalis; S. faecalis (516), Mueller-Hinton broth, 37° C., 18 hours; read-out: Minimal Inhibitory Concentration (MIC)
Procedure, shortened: as §1

[10] = test system: Streptococcus faecalis (UM); assay: MIC in broth, Gram+ strains; type: cell-based; conditions: Enterococcus faecalis; S. faecalis (UM), Mueller-Hinton broth, 37° C., 18 hours; read-out: Minimal Inhibitory Concentration (MIC)
Procedure, shortened: as §1

[11] = test system: Streptococcus faecalis (501); assay: MIC in broth, Gram+ strains; type: cell-based; conditions: Enterococcus faecalis; S. faecalis (501), Mueller-Hinton broth, 37° C., 18 hours; read-out: Minimal Inhibitory Concentration (MIC)
Procedure, shortened: as §1

[12] = test system: Streptococcus faecalis (505); assay: MIC in broth, Gram+ strains; type: cell-based; conditions: Enterococcus faecalis; S. faecalis (505), Mueller-Hinton broth, 37° C., 18 hours; read-out: Minimal Inhibitory Concentration (MIC)
Procedure, shortened: as §1

[13] = test system: Streptococcus faecalis (518); assay: MIC in broth, Gram+ strains; type: cell-based; conditions: Enterococcus faecalis; S. faecalis (518), Mueller-Hinton broth, 37° C., 18 hours; read-out: Minimal Inhibitory Concentration (MIC)
Procedure, shortened: as §1

[14] = test system: Streptococcus faecalis (R 2); assay: MIC in broth, Gram+ strains; type: cell-based; conditions: Enterococcus faecalis; S. faecalis (R 2), Mueller-Hinton broth, 37° C., 18 hours; read-out: Minimal Inhibitory Concentration (MIC)
Procedure, shortened: as §1

[15] = test system: murine lymphoid organs (spleen and thymus); assay: Test 2: weight of murine lymphoid organs after repeated oral administration; type: in vivo, mouse (male B6 D2 F1); conditions: 100 mg/kg/day for 7 consecutive days
Method: Evaluation of the effect of repeated oral administrations of ST 722 on the weight of murine lymphoid organs (spleen and thymus).
Male B6 D2 F1 mice (C. River) aged 7 weeks (7-8 animals each group) were orally treated with the substance ST 722 at the dose of 100 mg/kg/day for 7 consecutive days. Twenty-four hours after the last administration, the animals were sacrificed, the organs removed and weighed.

[16] = test system: antibody-producer B lymphocytes (spleen of SRBC immunized mice); assay: Test 1: primary antibody production (Jerne test) in spleen of SRBC immunized mice; type: in vivo, mouse (male B6 D2 F1)
Method: Evaluation of the "in vitro-ex vivo" effect of repeated oral administrations of ST 722 on the primary antibody production (Jerne test) in the spleen of SRBC (Sheep Red Blood Cells) immunized mice.
Male B6 D2 F1 mice (C. River) aged 8 weeks (6 animals each group) were utilized.
The substance (ST 722) was administered per os at the dose of 100 mg/kg/day from day -2 through day +2 (immunization at day 0).
The animals were immunized by intraperitoneal route with a concentration of 1.0×10^8 cells/mouse in 0.2 ml of sterile saline.
Five days later, spleens to be submitted to teasing process were removed from the animals sacrificed by cervical dislocation.
After standardization at 1.0×10^7 cells/ml, the splenocytes (0.1 ml) were mixed with warm agar-Hank's (2 ml) and 10% SRBC in PBS (0.2 ml) and seeded in Petri dishes (samples tested in triplicates) and incubated at 37° C. for 60 min.
After addition of complement (2 ml of guinea pig serum diluted 1:10 in Tris buffer), samples were further incubated at 37° C. for 30 min.
To block the haemolysis reaction, the Petri dishes were cooled at 4° C. and the haemolysis plaques were counted.
The antibody response to SRBC is expressed as number of plaque forming cells (PFC) per 1.0×10^6 splenocytes as well as per spleen.

[17] = 100 mg/kg/day per os, day -2 through day +2, mean ± S.E.

CCCCCCCCCCCOC(=O)CC(C[N+](C)(C)C)OC(=O)CC(C)C [ST 722, Isovaleryl-L-Carnitine Undecyl Ester Chloride]
MIC [1]: 6.25 µg/mL
MIC [2]: 6.25 µg/mL
MIC [3]: 3.12 µg/mL
MIC [4]: 3.12 µg/mL
MIC [5]: 1.56 µg/mL
MIC [6]: 1.56 µg/mL
MIC [7]: 3.12 µg/mL
MIC [8]: 3.12 µg/mL
MIC [9]: 1.56 µg/mL
MIC [10]: 1.56 µg/mL
MIC [11]: 3.12 µg/mL
MIC [12]: 3.12 µg/mL
MIC [13]: 3.12 µg/mL
MIC [14]: 3.12 µg/mL
Body weight [15]: 22.74 ± 0.37 g
Spleen weight [15]: 77.88 ± 2.38 mg
Thymus weight [15]: 52.88 ± 3.20 mg
immunotoxic effect on the parameters examined [15]: did not provoke any immunotoxic effect
toxic effect on weight of the lymphoid organs (spleen and thymus) ([16]; 100 mg/kg/day per os): did not show values relating to a toxic effect
Body weight [16, 17]: 25.12 g
PFC/10^6 cells [16, 17]: 261 ± 34 PFC/10^6 cells
PFC/spleen [16, 17]: 44440 PFC/spleen
Spleen weight [16, 17]: 94.33 mg
Thymus weight [16, 17]: 59.50 mg
modification in PFC number after the antigenic challenge ([16]; repeated (5 consecutive days) oral administrations): did not cause a statistically significant modification in PFC number
